The text below walks through data of patent publication US20210009613A1, “ARYLPHOSPHINE OXIDES FOR INHIBITING KINASE ACTIVITY” (Shenzhen TargetRx, Inc., priority 2017, published 2021).

One assay deals with I1171N/T/S. Particulars: Crizotinib-resistant mutation; cited from earlier work.
Another assay concerns F1174C/V. Particulars: Crizotinib-resistant mutation; cited from earlier work.
In a further assay the target is G1202R (Homo sapiens, UniProt Q9UM73, G1202R). To be noted: Crizotinib-resistant mutation; cited from earlier work.
The next assay concerns the target ALK [WT] (Homo sapiens, UniProt Q9UM73). Put plainly: Kinase inhibition assay, ALK [WT]. It is filed as biochemical. The procedure:
(§1) Compound preparation: The test compounds were dissolved in DMSO to make 20 mM stock solutions. The compounds were diluted in DMSO to 0.1 mM (a dilution with 100 times the final concentration) before use, and a 3-fold series gradient dilution with 11 concentrations was made. Dilutions with 4 times of the final concentration were prepared by diluting with buffer when dosing.
(§2) Kinase assay: after preparing the buffer solution, the enzyme was mixed with pre-diluted compounds with different concentrations, and placed at room temperature for 30 minutes in duplicate. The corresponding substrate and ATP were added thereto and reacted at room temperature for 60 minutes (both a negative and a positive control were set). After the reaction, antibody was added for detection, and after incubation at room temperature for 60 minutes, Evnvision detection was carried out, and data was collected. Data was analyzed and fit according to XLfit5 software. IC50 was calculated by the following formula: (IC50=[(ABS test-ABS begin)/(ABS control-ABS begin)]×100).

For assay [1], the target named is T1, Ba/F3 [EML4-ALK L1196M] (Homo sapiens, UniProt Q9UM73, L1196M, cells depend on it).
T1 construct: IC50(nM) ALK[L1196M]; (Ba/F3); other: 72 hours, CellTiter-Glo; Ba/F3 [EML4-ALK L1196M]; fused on or other part: Q9HC35 (Echinoderm microtubule-associated protein-like 4)
Put plainly: Cytotoxicity test (CellTiter-Glo), Ba/F3 [EML4-ALK L1196M]. It is filed as cell-based. To be noted: 72 hours, CellTiter-Glo; read-out: IC50(nM) ALK[L1196M] (Ba/F3). The procedure:
(§3) The in vitro anti-proliferative activity of the compounds of the present disclosure against three types of cells that are cultured in vitro was tested by CellTiter-Glo method.
(§4) Cell lines: Ba/F3 parental; Ba/F3 [EML4-ALK] (From WuXi PharmaTech) and Ba/F3 [EML4-ALK L1196M] (From WuXi PharmaTech); wherein, Ba/F3 parental was cultured in RPMI1640 medium containing 10 ng/ml IL-3, […], 100 U/ml penicillin, and 100 μg/ml streptomycin, Ba/F3 [EML4-ALK] and Ba/F3 [EML4-ALK L1196M] were cultured in RPMI1640 medium containing 10% fetal bovine serum, 100 U/ml penicillin, and 100 μg/ml streptomycin.
(§5) Reagents and materials: RPMI-1640 (GIBCO, Cat. No. A10491-01); fetal bovine serum (GIBCO, Cat. No. 10099141); 0.25% trypsin-EDTA (GIBCO, Cat. No. 25200); penicillin-streptomycin, liquid (GIBCO, Cat. No. 15140-122); DMSO (Sigma, Cat. No. D2650); CellTiter-Glo Test Kit (Promega, Cat. No. G7572), and 96-well plate (Corning, Cat. No. 3365).
(§6) Specific experimental procedures: • 1. The test compounds were dissolved in DMSO to make stock solutions and subjected to a series gradient dilution to give solutions with 10-fold working concentration. • 2. The cells in the logarithmic growth phase were diluted with the culture solution to adjust to the specific cell concentration, 90 μl of cell suspension was added to the 96-well plate to make the cell density reach the specified concentration. The plate was incubated in a incubator at 37° C., containing 5% carbon dioxide gas overnight. • 3. 10 μl drug solutions were added to each well of the 96-well plate inoculated with cells. 10 concentrations of the compounds were tested starting from the highest concentration of 20 μM with a 3-fold series gradient dilution in duplicate. • 4. After continuously cultured for 72 hours, the cells were detected by CellTiter-Glo for the cell viability. The dose-effect curve was made using GraphPad Prism software and IC50 was calculated.
For orientation: Cellular ATP, detected with luciferase, serves as a proxy for viable cell number.

For assay [2], the system named is Ba/F3 [EML4-ALK L1196M]. Described as above. It is filed as cell-based. To be noted: ratio of Ba/F3 IC50 values. The procedure: as §3, §4, §5, §6
A further assay addresses ALK [L1196M] (Homo sapiens, UniProt Q9UM73, L1196M). Description: Kinase inhibition assay, ALK [L1196M]. In kind it is biochemical. The protocol: as §1, §2
Another assay relates to Ba/F3 parental. Description: Cytotoxicity test (CellTiter-Glo), Ba/F3 parental. Particulars: Mus musculus, BaF3, 72 hours. It is filed as cell-based. The protocol:
as §3, §4, §5, §6

Assay [3] deals with Ba/F3 [EML4-ALK]. Description: Cytotoxicity test (CellTiter-Glo), Ba/F3 [EML4-ALK]. In kind it is cell-based. Particulars: ratio of Ba/F3 IC50 values. The procedure:
as §3, §4, §5, §6

Assay [4] has as its target T2, Ba/F3 [EML4-ALK] (Homo sapiens, UniProt Q9UM73).
T2 construct: IC50(nM) ALK (Ba/F3); other: 72 hours, CellTiter-Glo; Ba/F3 [EML4-ALK]; fused on or other part: Q9HC35 (Echinoderm microtubule-associated protein-like 4)
The assay is described as above. In kind it is cell-based. Particulars: 72 hours, CellTiter-Glo; read-out: IC50(nM) ALK (Ba/F3). The protocol: as §3, §4, §5, §6

ALK [WT], sequence (Q9UM73 19-1620): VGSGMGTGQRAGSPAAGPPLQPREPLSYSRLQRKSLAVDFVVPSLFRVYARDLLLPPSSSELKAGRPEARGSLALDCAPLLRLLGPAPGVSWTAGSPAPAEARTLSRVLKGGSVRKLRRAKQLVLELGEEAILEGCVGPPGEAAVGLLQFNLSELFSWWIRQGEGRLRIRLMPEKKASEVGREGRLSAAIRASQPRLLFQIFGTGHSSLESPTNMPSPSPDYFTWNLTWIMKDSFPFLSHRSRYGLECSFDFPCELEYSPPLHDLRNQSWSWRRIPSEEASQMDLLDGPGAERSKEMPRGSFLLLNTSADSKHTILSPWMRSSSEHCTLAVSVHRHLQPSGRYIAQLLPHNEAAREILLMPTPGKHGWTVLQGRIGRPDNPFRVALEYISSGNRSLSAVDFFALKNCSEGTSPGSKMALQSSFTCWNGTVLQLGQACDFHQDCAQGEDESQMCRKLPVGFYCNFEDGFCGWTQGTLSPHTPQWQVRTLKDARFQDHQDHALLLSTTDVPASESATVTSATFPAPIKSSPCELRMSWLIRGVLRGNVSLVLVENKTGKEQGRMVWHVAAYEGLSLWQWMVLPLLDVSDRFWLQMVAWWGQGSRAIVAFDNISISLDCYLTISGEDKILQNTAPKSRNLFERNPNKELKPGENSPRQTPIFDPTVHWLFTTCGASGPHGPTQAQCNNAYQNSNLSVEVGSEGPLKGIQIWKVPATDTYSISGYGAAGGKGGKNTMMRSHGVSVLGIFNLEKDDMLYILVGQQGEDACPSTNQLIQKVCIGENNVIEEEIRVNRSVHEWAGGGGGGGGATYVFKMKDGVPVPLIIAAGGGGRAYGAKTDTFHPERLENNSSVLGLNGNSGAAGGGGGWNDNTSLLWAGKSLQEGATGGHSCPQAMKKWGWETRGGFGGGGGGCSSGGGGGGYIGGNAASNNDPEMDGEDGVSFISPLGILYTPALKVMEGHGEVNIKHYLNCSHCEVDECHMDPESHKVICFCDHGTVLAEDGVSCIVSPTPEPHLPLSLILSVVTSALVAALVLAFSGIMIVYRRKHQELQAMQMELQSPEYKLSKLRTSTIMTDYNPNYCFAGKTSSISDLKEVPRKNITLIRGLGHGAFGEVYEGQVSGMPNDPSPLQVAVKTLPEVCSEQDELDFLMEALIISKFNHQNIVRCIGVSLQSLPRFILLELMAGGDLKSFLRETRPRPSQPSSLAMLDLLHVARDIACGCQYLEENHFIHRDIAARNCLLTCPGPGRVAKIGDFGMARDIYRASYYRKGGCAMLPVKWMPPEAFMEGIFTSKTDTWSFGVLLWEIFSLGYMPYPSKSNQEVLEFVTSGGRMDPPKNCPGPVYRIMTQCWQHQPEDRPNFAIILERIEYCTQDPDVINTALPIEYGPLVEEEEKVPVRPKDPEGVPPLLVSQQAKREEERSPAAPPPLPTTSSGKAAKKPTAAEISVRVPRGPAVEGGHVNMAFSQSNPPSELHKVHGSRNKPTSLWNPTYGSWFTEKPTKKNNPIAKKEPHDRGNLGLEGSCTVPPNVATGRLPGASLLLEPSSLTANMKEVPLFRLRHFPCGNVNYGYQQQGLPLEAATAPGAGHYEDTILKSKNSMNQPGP
ALK [L1196M], sequence (Q9UM73 19-1620 L1196M): as the sequence (Q9UM73 19-1620) above, with L1178M counted along it
T1 sequence (Q9UM73 whole entry L1196M, the tested form may be a part): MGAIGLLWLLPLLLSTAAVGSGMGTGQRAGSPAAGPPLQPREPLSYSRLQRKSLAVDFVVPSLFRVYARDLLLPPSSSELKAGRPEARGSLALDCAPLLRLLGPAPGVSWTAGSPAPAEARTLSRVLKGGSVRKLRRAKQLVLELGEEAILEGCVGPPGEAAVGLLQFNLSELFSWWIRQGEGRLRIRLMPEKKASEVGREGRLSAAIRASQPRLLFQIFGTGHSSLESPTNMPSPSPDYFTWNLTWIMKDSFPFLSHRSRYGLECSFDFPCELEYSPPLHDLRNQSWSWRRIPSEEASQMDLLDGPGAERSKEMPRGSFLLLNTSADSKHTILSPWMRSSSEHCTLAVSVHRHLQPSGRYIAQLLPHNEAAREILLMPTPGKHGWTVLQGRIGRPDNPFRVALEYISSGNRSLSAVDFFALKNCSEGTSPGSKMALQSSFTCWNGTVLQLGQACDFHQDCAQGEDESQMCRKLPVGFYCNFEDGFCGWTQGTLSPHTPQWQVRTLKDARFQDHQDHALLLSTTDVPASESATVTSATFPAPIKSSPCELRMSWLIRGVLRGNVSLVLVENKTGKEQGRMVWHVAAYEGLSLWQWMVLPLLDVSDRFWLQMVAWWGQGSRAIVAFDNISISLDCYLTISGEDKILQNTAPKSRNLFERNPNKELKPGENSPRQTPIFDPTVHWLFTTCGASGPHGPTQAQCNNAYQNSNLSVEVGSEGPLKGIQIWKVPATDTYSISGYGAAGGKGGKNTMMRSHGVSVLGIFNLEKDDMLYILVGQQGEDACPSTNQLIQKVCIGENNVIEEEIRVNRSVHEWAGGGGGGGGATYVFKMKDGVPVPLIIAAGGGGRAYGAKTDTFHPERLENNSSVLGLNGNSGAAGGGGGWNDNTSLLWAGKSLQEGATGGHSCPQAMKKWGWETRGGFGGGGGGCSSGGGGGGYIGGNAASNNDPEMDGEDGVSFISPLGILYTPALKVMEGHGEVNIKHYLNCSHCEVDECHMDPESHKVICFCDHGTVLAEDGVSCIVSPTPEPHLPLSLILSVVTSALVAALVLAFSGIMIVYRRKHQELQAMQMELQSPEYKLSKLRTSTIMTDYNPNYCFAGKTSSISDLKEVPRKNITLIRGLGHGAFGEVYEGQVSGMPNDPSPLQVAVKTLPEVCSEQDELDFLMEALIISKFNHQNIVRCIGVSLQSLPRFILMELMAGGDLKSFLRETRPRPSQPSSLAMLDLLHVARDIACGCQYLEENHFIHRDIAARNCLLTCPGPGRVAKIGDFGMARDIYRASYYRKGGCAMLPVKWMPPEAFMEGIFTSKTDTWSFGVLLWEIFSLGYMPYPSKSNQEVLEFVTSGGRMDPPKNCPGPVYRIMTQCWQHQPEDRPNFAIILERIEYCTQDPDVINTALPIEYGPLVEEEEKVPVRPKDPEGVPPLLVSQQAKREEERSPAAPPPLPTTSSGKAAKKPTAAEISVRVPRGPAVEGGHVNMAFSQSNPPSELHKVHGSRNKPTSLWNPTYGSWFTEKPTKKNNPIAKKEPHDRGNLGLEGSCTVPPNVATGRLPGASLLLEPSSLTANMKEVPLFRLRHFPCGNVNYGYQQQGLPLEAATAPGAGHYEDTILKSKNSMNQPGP
T2 sequence (Q9UM73 whole entry, change not shown, the tested form may be a part): as the sequence (Q9UM73 whole entry L1196M, the tested form may be a part) above, with M1196L counted along it
G1202R, sequence (Q9UM73 19-1620 G1202R): as the sequence (Q9UM73 19-1620) above, with G1184R counted along it

As for `CCc1cc2c(cc1N1CCC(N3CCOCC3)CC1)C(C)(C)c1[nH]c3cc(C#N)ccc3c1C2=O` [Alectinib], the “effect on I1171N/T/S” value in the assay on I1171N/T/S was “no effect”.
Regarding `Cc1cc(Nc2ncc(Cl)c(Nc3ccccc3S(=O)(=O)C(C)C)n2)c(OC(C)C)cc1C1CCNCC1` [Ceritinib], the “effect on F1174C/V” value with F1174C/V was “no effect”. Moreover, the “effect on G1202R” value at G1202R is recorded as “neither of them has effect”.
For `CN1CCN(C2CCN(c3ccc(Nc4ncc(Cl)c(Nc5ccccc5P(C)(C)=O)n4)c(OCC(F)(F)F)n3)CC2)CC1` [Example 12, (2-((5-chloro-2-((6-(4-(4-methylpiperazin-1-yl)piperidin-1-yl)-2-(2,2,2-trifluoroethoxy)pyridin-3-yl)amino)pyrimidin-4-yl)amino)phenyl)dimethylphosphine oxide], the values for the IC50 against ALK [WT], against ALK [L1196M] and in the assay with Ba/F3 parental were 5 to 10 nM, 10 to 50 nM and not below 1000 nM, respectively. The GI50 was 50 to 100 nM on Ba/F3 [EML4-ALK L1196M] [1] and not above 50 nM at Ba/F3 [EML4-ALK] [4]. Also, the “Selectivity parental/ALK[L1196M]” value in the assay with Ba/F3 [EML4-ALK L1196M] [2] was 0~50. In addition, the “Selectivity parental/ALK” value in the assay with Ba/F3 [EML4-ALK] [3] is given as 111.30.
Regarding `COc1nc(N2CCC(N(C)C)CC2)ccc1Nc1nc(Nc2ccccc2P(C)(C)=O)c2cc[nH]c2n1` [Example 13, (2-((2-((6-(4-(dimethylamino)piperidin-1-yl)-2-methoxypyridin-3-yl)amino)-7H-pyrrolo [2,3-d]pyrimidin-4-yl)amino)phenyl)dimethylphosphine oxide], the IC50 at ALK [WT] was 5 to 10 nM; against ALK [L1196M], not above 5 nM; in the assay on Ba/F3 parental, 400 to 1000 nM. Further, the GI50 at Ba/F3 [EML4-ALK L1196M] [1] was 50 to 100 nM; at Ba/F3 [EML4-ALK] [4] it was not above 50 nM. Also, the “Selectivity parental/ALK[L1196M]” value with Ba/F3 [EML4-ALK L1196M] [2] was 0~50. In addition, in the assay with Ba/F3 [EML4-ALK] [3], the “Selectivity parental/ALK” value was 0~50.
For `COc1nc(N2CCN(C)CC2)ccc1Nc1nc(Nc2ccccc2P(C)(C)=O)c2cc[nH]c2n1` [Example 14, (2-((2-((2-methoxy-6-(4-methylpiperazin-1-yl)pyridin-3-yl)amino)-7H-pyrrolo[2,3-d]pyrimidin-4-yl)amino)phenyl)dimethylphosphine oxide], the figures for the IC50 at ALK [WT], at ALK [L1196M] and in the assay on Ba/F3 parental were not above 5 nM, not above 5 nM and 400 to 1000 nM, respectively. Besides, the GI50 on Ba/F3 [EML4-ALK L1196M] [1] and on Ba/F3 [EML4-ALK] [4] was not above 50 nM in each case. Further, in the assay with Ba/F3 [EML4-ALK L1196M] [2], the “Selectivity parental/ALK[L1196M]” value is given as 0~50. Further, the “Selectivity parental/ALK” value in the assay on Ba/F3 [EML4-ALK] [3] is 50~100.
With `COc1nc(N(C)CCN(C)C)ccc1Nc1nc(Nc2ccccc2P(C)(C)=O)c2cc[nH]c2n1` [Example 15], the figures for the IC50 at ALK [WT], against ALK [L1196M] and in the assay on Ba/F3 parental were 5 to 10 nM, not above 5 nM and not below 1000 nM, respectively. Further, the values for the GI50 on Ba/F3 [EML4-ALK L1196M] [1] and at Ba/F3 [EML4-ALK] [4] were 50 to 100 nM and not above 50 nM, respectively. The “Selectivity parental/ALK[L1196M]” value in the assay on Ba/F3 [EML4-ALK L1196M] [2] is 0~50. Moreover, the “Selectivity parental/ALK” value with Ba/F3 [EML4-ALK] [3] is listed as 50~100.
As for `COc1nc(N2CCC(N3CCN(C)CC3)CC2)ccc1Nc1nc(Nc2ccccc2P(C)(C)=O)c2cc[nH]c2n1` [Example 16, (2-((2-((2-methoxy-6-(4-(4-methylpiperazin-1-yl)piperidin-1-yl)pyridin-3-yl)amino)-7H-pyrrolo[2,3-d]pyrimidin-4-yl)amino)phenyl)dimethylphosphine oxide], the results for the half-inhibitory concentration (IC50) against ALK [WT], against ALK [L1196M] and with Ba/F3 parental were not above 5 nM, 5 to 10 nM and 400 to 1000 nM, respectively. Besides, the figures for the GI50 on Ba/F3 [EML4-ALK L1196M] [1] and at Ba/F3 [EML4-ALK] [4] were 50 to 100 nM and not above 50 nM, respectively. For the same compound, in the assay on Ba/F3 [EML4-ALK L1196M] [2], the “Selectivity parental/ALK[L1196M]” value is 0~50. In the assay on Ba/F3 [EML4-ALK] [3], the “Selectivity parental/ALK” value is listed as 50~100.
In the case of `CP(C)(=O)c1ccccc1Nc1nc(Nc2ccc(CCN)nc2OCC(F)(F)F)ncc1Cl` [Example 17, (2-((2-((6-(2-aminoethyl)-2-(2,2,2-trifluoroethoxy)pyridin-3-yl)amino)-5-chloropyrimidin-4-yl)amino)phenyl)dimethylphosphine oxide], the values for the IC50 against ALK [WT], against ALK [L1196M] and in the assay on Ba/F3 parental were 10 to 50 nM, 50 to 100 nM and not below 1000 nM, respectively. Moreover, the GI50 on Ba/F3 [EML4-ALK L1196M] [1] lay in the range of 400 to 1000 nM; on Ba/F3 [EML4-ALK] [4], 100 to 400 nM. In addition, the “Selectivity parental/ALK[L1196M]” value with Ba/F3 [EML4-ALK L1196M] [2] is recorded as 0~50. In addition, the “Selectivity parental/ALK” value with Ba/F3 [EML4-ALK] [3] is listed as 50~100.
For `CNCCc1ccc(Nc2ncc(Cl)c(Nc3ccccc3P(C)(C)=O)n2)c(OCC(F)(F)F)n1` [Example 18, (2-((5-chloro-2-((6-(2-(methylamino)ethyl)-2-(2,2,2-trifluoroethoxy)pyridin-3-yl)amino)pyrimidin-4-yl)amino)phenyl)dimethylphosphine oxide], the IC50 on ALK [WT] was 10 to 50 nM; against ALK [L1196M], 50 to 100 nM; in the assay on Ba/F3 parental it was not below 1000 nM. For the same compound, the GI50 at Ba/F3 [EML4-ALK L1196M] [1] and at Ba/F3 [EML4-ALK] [4] was 100 to 400 nM in each case. In addition, the “Selectivity parental/ALK[L1196M]” value in the assay on Ba/F3 [EML4-ALK L1196M] [2] is on record as 0~50. The “Selectivity parental/ALK” value in the assay on Ba/F3 [EML4-ALK] [3] is on record as 50~100.
With `CN(C)CCc1ccc(Nc2ncc(Cl)c(Nc3ccccc3P(C)(C)=O)n2)c(OCC(F)(F)F)n1` [Example 19, (2-((5-chloro-2-((6-(2-(dimethylamino)ethyl)-2-(2,2,2-trifluoroethoxy)pyridin-3-yl)amino)pyrimidin-4-yl)amino)phenyl)dimethylphosphine oxide], the results for the IC50 on ALK [WT], against ALK [L1196M] and in the assay on Ba/F3 parental were 10 to 50 nM, 50 to 100 nM and not below 1000 nM, respectively. Further, the figures for the GI50 on Ba/F3 [EML4-ALK L1196M] [1] and at Ba/F3 [EML4-ALK] [4] were 100 to 400 nM and 50 to 100 nM, respectively. In addition, the “Selectivity parental/ALK[L1196M]” value in the assay with Ba/F3 [EML4-ALK L1196M] [2] is given as 50~100. The “Selectivity parental/ALK” value in the assay on Ba/F3 [EML4-ALK] [3] is 100~200.

For orientation: IC50 means the concentration that gives 50% inhibition.
